Results on 68 compounds are retold here after PubChem BioAssay AID179 (DTP/NCI, 2004).

The experiment relates to CEM cells HIV-1 protection, formazan growth assay. Description: NCI AIDS Antiviral Assay. The settings on record: for IC50: measured here: growth of uninfected CEM cells. In outline:
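Protection of CEM cells against HIV-1 was scored from cell growth (soluble formazan) across five concentrations, with parallel uninfected cells. Lack of protection may reflect toxicity.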

Activity calls are given as the source filed them.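 Rule for the calls: active = compounds giving half or more protection of infected cells from virus-caused growth loss, again on retest; inactive = the rest.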 Where a SMILES comes first, the peptide text is derived from it. [ ]: non-standard residue; d: D form. The star is where a group is joined. ξ: configuration not given here. X17 = O=C(OCc1ccccc1)[C@@H]1CCC[C@H]1N*; Fmoc = O=C(OCC1c2ccccc2-c2ccccc21)*; ξW = NC(Cc1c[nH]c2ccccc12)C(=O)O; ξF = NC(Cc1ccccc1)C(=O)O; Boc = CC(C)(C)OC(=O)*; ξK = NCCCCC(N)C(=O)O; ξT = CC(O)C(N)C(=O)O; tBu = CC(C)(C)* Some results are limits rather than exact numbers.

Take `CC(=O)C1C(=O)C(=O)N(c2cccc([N+](=O)[O-])c2)C1=O` (stereo not given): the EC50 was above 200 µM and the IC50 was above 200 µM.

`COc1ccc(OC)c2cc(C3(C)SCCCS3)ccc12`: the result was inactive.

For `CC(OC(C)(C)C)C(NC(=O)C(CCCCNC(=O)OC(C)(C)C)NC(=O)C(Cc1c[nH]c2ccccc12)NC(=O)C(Cc1ccccc1)NC(=O)OCC1c2ccccc2-c2ccccc21)C(=O)NC(Cc1ccccc1)C(=O)N[C@@H]1CCC[C@H]1C(=O)OCc1ccccc1` (stereo not given in full) (Fmoc-[ξF][ξW][ξK](Boc)[ξT](tBu)[ξF]-X17), the result was inactive.

Regarding `NC(Cc1ccc2nc3c4ccccc4c(=O)cc-3oc2c1)C(=O)O` (stereo not given), the EC50 is above 200 µM and the IC50 amounted to 34.7 µM.

Turning to `C[C@]12Cc3cn[nH]c3C(=O)C1CC[C@@H]1C2CC[C@@]2(C)C1CC[C@]2(C)O` (stereo not given in full), the EC50 was above 38 µM and the IC50 is above 38 µM.

With `O=C1/C(=C/c2cc3c(=O)c4ccccc4sc3s2)NC(=S)N1c1ccccc1`, the EC50 is above 200 µM and the IC50 was above 200 µM.

For `O=S(=O)(C/C(=N\O)c1ccccc1)c1ccccc1`, the EC50 was above 324 µM and the 50% inhibitory concentration (IC50) was found to be 182 µM.

With `Cc1cc(N(CCOS(C)(=O)=O)CCOS(C)(=O)=O)ccc1C=Nc1ccc(-c2nc(Cc3ccccc3)sc2C)cc1`, the EC50 was above 200 µM and the 50% inhibitory concentration (IC50) came out at 0.427 µM.

Regarding `NNS(=O)(=O)c1ccc(/C=C2\NC(=O)NC2=O)cc1`, the EC50 was above 200 µM and the IC50 is above 200 µM.

`Cc1c(OCCCOc2ccc3c(=O)cc(-c4ccccc4)oc3c2C)ccc2c(=O)cc(-c3ccccc3)oc12`: the EC50 is above 25.1 µM and the concentration for half-maximal inhibition (IC50) is above 25.1 µM.

For `CC(=O)C1(O)CC2(c3ccccc3)C(=O)C1(c1ccccc1)C(c1ccccc1)=C2c1ccccc1` (stereo not given), the result was inactive.

Regarding `O=[n+]1c2c(n([O-])c3ccccc31)-c1cccc3cccc-2c13`, the EC50 was above 200 µM and the 50% inhibitory concentration (IC50) came to 129 µM.

Consider `O=C(Oc1ccccc1)N(CCO)C(c1ccccc1)C(O)c1ccccc1` (stereo not given), for which the EC50 is above 200 µM and the IC50 came out at 5.25 µM.

In the case of `CN(CCO)CCN1c2ccccc2Sc2ccccc21`, the result was inactive.

On to `O=C(CCCN1CCC2(CC1)CC(=O)N(N1CCOCC1)C2=O)c1ccccc1`, for which the EC50 was above 200 µM and the IC50 was above 200 µM.

Consider `N#C/C(=C\c1ccc(F)cc1)c1nc2ccccc2c(=O)[nH]1`, for which the outcome was inactive.

Take `COc1ccc(-c2cc(-c3cc(OC)c(OC)c(OC)c3)cc(-c3cc4ccccc4oc3=O)n2)cc1`: the EC50 was above 200 µM and the concentration for half-maximal inhibition (IC50) is 155 µM.

With `CC1=CC(=O)C2(C)CC[C@]3(O)CCCC123` (stereo not given in full), the result was inactive.

As to `C[n+]1c2ccccc2c(CNCC(=O)O)c2ccccc21`, the result was inactive.

Compound `O=C(O)C1CC=CCC1c1c2ccc(=O)cc-2oc2cc(O)ccc12` (stereo not given) showed an EC50 of 3.98 µM and a 50% inhibitory concentration (IC50) of 141 µM.

In the case of `C1=Cc2nc1c(-c1ccccc1)c1ccc([n-]1)c(-c1ccccc1)c1nc(c(-c3ccncc3)c3ccc([n-]3)c2-c2ccccc2)C=C1.C1=Cc2nc1c(-c1ccccc1)c1ccc([n-]1)c(-c1ccccc1)c1nc(c(-c3ccncc3)c3ccc([n-]3)c2-c2ccccc2)C=C1.C1=Cc2nc1c(-c1ccccc1)c1ccc([n-]1)c(-c1ccccc1)c1nc(c(-c3ccncc3)c3ccc([n-]3)c2-c2ccccc2)C=C1.C1=Cc2nc1c(-c1ccccc1)c1ccc([n-]1)c(-c1ccccc1)c1nc(c(-c3ccncc3)c3ccc([n-]3)c2-c2ccccc2)C=C1.O=S(=O)([O-])C(F)(F)F.[Pt+2].[Zn+2].[Zn+2].[Zn+2].[Zn+2]`, the EC50 is above 25.1 µM and the IC50 is above 25.1 µM.

`CC(C(O)c1ccccc1)C(O)(C(F)(F)F)C(F)(F)F` (stereo not given): the EC50 is above 200 µM and the IC50 was determined as 95.5 µM.

Take `COc1ccccc1C(C(=O)NC1CN2CCC1CC2)c1ccsc1` (stereo not given): the EC50 was above 200 µM and the concentration for half-maximal inhibition (IC50) was determined as 151 µM.

Turning to `Cc1cc(=O)[nH]c(=S)n1-c1nc2ccccc2o1`, the EC50 was above 115 µM and the IC50 is above 115 µM.

`O=C1c2ccccc2-c2ccc3c4ccc5c6c(ccc(c7ccc1c2c73)c64)-c1ccccc1C5=O`: the EC50 was above 200 µM and the half-maximal inhibitory concentration (IC50) was above 200 µM.

With `Cc1nonc1C(=O)NN`, the EC50 was above 631 µM and the IC50 is above 631 µM.

Regarding `COc1cc2c(c(O)c1OC)C(=O)[C@@H]1CCC(=O)N1C2c1ccccc1` (stereo not given in full), the EC50 is above 200 µM and the IC50 was determined as 83.2 µM.

Regarding `CC(=O)O[C@@H]1C(O)C=C2c3cc4c(c(O)c3C(=O)NC2[C@@H]1OC(C)=O)OCO4` (stereo not given in full), the result was inactive.

In the case of `COc1ccc(/C=C(\C#N)c2ccccn2)cc1OC`, the EC50 is above 200 µM and the IC50 was 50.1 µM.

On to `Cc1ccc(C)c2c1C/C(=C\c1ccccc1C(=O)O)C2=O`, for which the EC50 is above 200 µM and the 50% inhibitory concentration (IC50) was 83.2 µM.

On to `O=[N+]([O-])c1cc(Cl)ccc1S(=O)(=O)c1cc(Cl)cc2c1NCCC2`, for which the EC50 is above 200 µM and the concentration for half-maximal inhibition (IC50) was determined as 32.4 µM.

For `COc1ccc(CCNC(=O)CCCCCO)cc1OC`, the EC50 was above 200 µM and the half-inhibitory concentration (IC50) turned out to be 195 µM.

For `CSc1nncc2[nH]c(C)nc12`, the EC50 is above 200 µM and the half-maximal inhibitory concentration (IC50) is above 200 µM.

For the compound `Cc1ccc(N2C(=O)/C(=C/c3ccc(N(CCC#N)CCC#N)cc3)N=C2COc2ccc(Cl)cc2Cl)cc1`, the outcome was inactive.

Regarding `COC(=O)CC1NC(=O)C1C(C)(OC)OC` (stereo not given), the EC50 is 191 µM and the IC50 is 251 µM.

`COc1ccc(NC(=O)CC(=O)NN)cc1`: the EC50 was above 200 µM and the 50% inhibitory concentration (IC50) was above 200 µM.

`Cc1nc(-n2nc(-c3ccccc3)cc2-c2ccccc2)sc1C(/C=C\c1ccc([N+](=O)[O-])cc1)=N/NC(=S)NN`: the EC50 was above 32.4 µM and the IC50 was above 32.4 µM.

Turning to `Cc1[nH]n(C(=O)Cc2ccccc2)c(=O)c1/C=C1\C(=O)C=Cc2ccccc21`, the EC50 is above 51.3 µM and the IC50 is above 51.3 µM.

Consider `C[N+](C)(C)CC(CC(=O)[O-])C1CC1` (stereo not given), for which the EC50 was above 1350 µM and the half-maximal inhibitory concentration (IC50) was above 1350 µM.

Consider `NC(CCCNCc1ccccc1)C(=O)O` (stereo not given), for which the EC50 was above 562 µM and the IC50 is above 562 µM.

As for `NCCOCCOCC(=O)O`, the outcome was inactive.

For the compound `COC(=O)C(CC(C)C)NC(=O)NC12CC3CC(CC(F)(C3)C1)C2` (stereo not given), the EC50 was above 75.9 µM and the half-inhibitory concentration (IC50) was above 75.9 µM.

As to `COS(=O)c1cc(Cl)cc(Cl)c1OC(=O)CSSCC(=O)Oc1c(Cl)cc(Cl)cc1S(=O)OC` (stereo not given), the outcome was inactive.

For the compound `COc1ccc(/C(=N/O)c2ccccc2-c2nc3ccccc3c(=O)n2-c2ccc(S(=O)(=O)Nc3ccccn3)cc2)cc1C`, the EC50 was above 100 µM and the half-inhibitory concentration (IC50) stood at 63.1 µM.

As for `CSc1nc(C)c(C(=O)CCN2CCOCC2)s1`, the EC50 is above 200 µM and the IC50 amounted to 10 µM.

For `O=C1C(=O)N(c2ccc(Cl)cc2)C(=O)C(=O)C1c1nc2ccccc2s1`, the EC50 was above 18.6 µM and the concentration for half-maximal inhibition (IC50) is above 18.6 µM.

As for `CCO/C(=C/C(=O)OC)NCCc1c[nH]c2ccccc12`, the EC50 was above 138 µM and the concentration for half-maximal inhibition (IC50) was 135 µM.

With `O=C1C=C(c2c(-c3ccccc3)[nH]c3ccccc23)C(=O)N1c1ccccc1`, the EC50 was above 200 µM and the IC50 came to 15.5 µM.

As to `COc1c2c3c(c(OC)c1OC)-c1ccc(O)cc1C3=NCC2`, the result was inactive.

As for `CC1(C)CN=C(Nc2ccc(F)cc2)S1`, the EC50 is above 200 µM and the half-inhibitory concentration (IC50) was above 200 µM.

With `CN1CCCCCC(=N\O)/C(=N/O)CCCCC1`, the EC50 is above 977 µM and the IC50 is above 977 µM.

On to `O=C1C[C@@H]2OC3=C(C(=O)CCC3)[C@@H]2O1`, for which the EC50 was above 1290 µM and the IC50 was determined as 7.24 µM.

Consider `CC12CCC3C(CCC4=CC(OC5OC(CO)C(O)C(O)C5O)CCC43C=O)C1(O)CCC2c1ccc(=O)oc1` (stereo not given), for which the EC50 is above 0.02 µM and the IC50 worked out at 0.00316 µM.

On to `Cc1n[nH]c(=O)n1/N=C/c1cccnc1`, for which the outcome was inactive.

`Cc1ccc([N+](=O)[O-])c2c(NCCC[N+](C)(C)[O-])ccnc12`: the EC50 was above 200 µM and the half-maximal inhibitory concentration (IC50) turned out to be 28.8 µM.

Turning to `CCCC(=O)N1CCN(c2ccc3c(c2)OC(C)O3)CC1` (stereo not given), the EC50 is above 200 µM and the concentration for half-maximal inhibition (IC50) was above 200 µM.

With `COC(=O)c1cc(C(=CCC[C@H]2CC[C@@]3(C)[C@@H](CC[C@H]4[C@@H]3CC[C@]3(C)[C@@H](C(C)CCCC(C)C)CC[C@@H]43)C2)c2cc(F)c(OC)c(C(=O)OC)c2)cc(F)c1OC` (stereo not given in full), the EC50 is above 200 µM and the half-maximal inhibitory concentration (IC50) is above 200 µM.

`COC(=O)/C=C/c1c(=O)c(C(=O)OC)cn2cnc3nc[nH]c3c12`: the EC50 was above 50.1 µM and the IC50 is above 50.1 µM.

`O=C(CC(=O)c1ccc(Cl)cc1)Cc1ccc2ccccc2n1`: the EC50 was above 11.2 µM and the concentration for half-maximal inhibition (IC50) was above 11.2 µM.

Consider `CCOc1ccc(C2=NN(CC)C(=O)C(C3C(=O)N(c4ccccc4)N=C3C)C2)cc1` (stereo not given), for which the EC50 was above 120 µM and the IC50 is above 120 µM.

As to `CC1=C(C)C(=O)C2=C(OCCCO2)C1=O`, the EC50 is above 1200 µM and the IC50 amounted to 3.39 µM.

Take `O=C(O)C1CC(C(=O)O)SS1` (stereo not given): the EC50 is above 1290 µM and the IC50 is above 1290 µM.

For `Cc1ccc(SSCCCCCS(=O)O)cc1`, the outcome was inactive.

On to `CCOC(=O)/C(F)=C/c1ccc(F)cc1`, for which the EC50 was above 123 µM and the concentration for half-maximal inhibition (IC50) was above 123 µM.

`COc1ccc(C2(C)OC(=O)c3ccccc32)c2ccccc12` (stereo not given): the outcome was inactive.

Take `CC(=O)Nc1cc2c(O)c(N=Nc3ccc(C(=O)Nc4ccc(N=Nc5ccc(S(=O)(=O)O)cc5)cc4)cc3)c(S(=O)(=O)O)cc2cc1S(=O)(=O)O`: the result was active.

On to `C(#C[PH+](c1ccccc1)c1ccccc1)c1ccccc1.C(#C[PH+](c1ccccc1)c1ccccc1)c1ccccc1.C(#C[PH+](c1ccccc1)c1ccccc1)c1ccccc1.[C-]#[O+].[C-]#[O+].[C-]#[O+].[W]`, for which the EC50 is above 0.676 µM and the IC50 was above 0.676 µM.

For the compound `CCCCN(CCCC)c1cc(=O)nc2ccccn12`, the EC50 was above 200 µM and the IC50 was above 200 µM.

The EC50 is the concentration needed to bring the measured effect to its halfway point. In general, IC50 refers to the concentration at which inhibition is half-maximal. Higher therefore signals lower potency.
